How the values were obtained:
ClpP–αSyn interaction = assay: ClpP–αSyn co-immunoprecipitation in iPSC-derived neurons; type: cell-based, human; settings: A53T-αSyn neurons; 1 µM, five days; n = 4
From the text: PD iPS cells lines (αSyn A53T, NN0004337, donor) and its isogenic corrected control line (NN0004344) were obtained from RUCDR Infinite Biologics. The iPS cells were differentiated into dopaminergic neuron-enriched neuronal culture with the protocol described previously. Briefly, iPS cell colonies were disassociated with accutase (Invitrogen), plated onto 6-well plates pre-coated with 2.5% Matrigel (BD Biosciences) and allowed to reach 80% confluence in mTeSR medium (Stem Cell Technology). For the first 10 days, cells were treated with SB431542 (10 µM; Tocris Bioscience) and Noggin (100 ng/ml) in Neural Media (NM) with FGF2 ([…]) and EGF ([…]). NM media contained: Neurobasal and DMEM/F12 (1:1), B-27 Supplement Minus Vitamin A (50×, Invitrogen), N2 Supplement (100X, Invitrogen), GlutaMAX (Invitrogen, 100×), 100 units/ml penicillin and 100 µg/ml streptomycin (Fisher); for the next 4 days, cells were treated with human recombinant Sonic hedgehog (SHH, 200 ng/ml) in neuronal differentiation medium. […]
Cells or tissues were lysed in total lysis buffer (50mM Tris-HCl, pH 7.5, 150mM NaCl, 1% Triton X-100, and protease inhibitor). […] The beads with immuno-precipitates were pulled down at 4000 g and washed four times with total lysis buffer/in vitro interaction buffer in the presence of 0.1% Triton X-100 and were analyzed by western blot analysis. […]

[1] = test system: mThy1-hSNCA mice (midbrain); assay: Midbrain western blot / co-immunoprecipitation in mThy1-hSNCA mice; type: in vivo, mouse
Method: Tissues were homogenized and incubated on ice for 30 min in total lysis buffer (50 mM Tris–HCl, pH 7.5, 150 mM NaCl, 1% Triton X-100, and protease inhibitor). Tissues were then spun at 12,000 rpm for 10 min at 4 °C; the resulting supernatant was triton-soluble fraction. The pellet was further suspended in total lysis buffer with 1% SDS, sonicated and incubated at 100 °C for 3 min, and followed by 20-s vortex. After two more repeats of 100 °C incubation and vortex, the solution was spun at 12,000 rpm for 10 min at 4 °C; the resulting supernatant was triton-insoluble fraction.
Protein concentrations were measured using the Bradford assay. Proteins (30 µg) were then resuspended in Laemmni buffer, loaded on sodium dodecyl sulfate-polyacrylamide gel electrophoresis gels, and transferred to nitrocellulose membranes. The membranes were probed with the indicated antibodies and visualized by electrochemiluminescence.
C57BL/6 N-Tg (Thy1-SNCA)15Mjff/J (JAX: 017682) breeders (C57Bl/6NJ genetic background) were purchased from Jackson Laboratories. The mice were mated, bred, and genotyped in the animal facility of Case Western Reserve University. All mice were maintained at a 12-hour light/dark cycle (on 6 am, off 6 pm). All randomization and peptide treatments in mThy1-hSNCA mice were prepared by an experimenter not associated with the behavioral and neuropathology analysis. Only male mice were used in the study. mThy1-hSNCA transgenic mice and their age-matched WT littermates were implanted with a 28-day subcutaneous osmotic pump (Alzet, Cupertino CA, Model 2004) containing either TAT control peptide or CS2 peptide, which delivered the peptides at indicated rate (1 or 3 or 10 mg/kg/day). The pump was replaced once every four weeks. All mice were sacrificed at age of 10-month for neuropathology assessment.
Cells or tissues were lysed in total lysis buffer (50mM Tris-HCl, pH 7.5, 150mM NaCl, 1% Triton X-100, and protease inhibitor). Total protein lysates (800 µg) were incubated with the indicated antibodies overnight at 4 °C followed by the addition of protein A/G beads (sc-2003, Santa Cruz) for 2 h at 4 °C. Various recombinant αSyn and Clpp (500 ng) were incubated in in vitro interaction buffer (20mM Tris-HCl pH 7.5, 100mM KCl, 2mM MgCl2 and 0.1% Triton-X100) for 30 min at room temperature, and then incubated with indicated antibodies overnight at 4 °C followed by the addition of protein A/G beads for 2 h at 4 °C. The beads with immuno-precipitates were pulled down at 4000 g and washed four times with total lysis buffer/in vitro interaction buffer in the presence of 0.1% Triton X-100 and were analyzed by western blot analysis.

[2] = 3 and 10 mg/kg/day s.c., 8 weeks, n = 3 mice/group

Structure (SMILES): CC(C)[C@H](NC(=O)CNC(=O)CNC(=O)CCCCCNC(=O)[C@H](CCCNC(=N)N)NC(=O)[C@H](CCCNC(=N)N)NC(=O)[C@H](CCCNC(=N)N)NC(=O)[C@H](CCC(N)=O)NC(=O)[C@H](CCCNC(=N)N)NC(=O)[C@H](CCCNC(=N)N)NC(=O)[C@H](CCCCN)NC(=O)[C@H](CCCCN)NC(=O)[C@H](CCCNC(=N)N)NC(=O)CNC(=O)[C@@H](N)Cc1ccc(O)cc1)C(=O)N[C@H](C(=O)N[C@H](C(=O)N[C@@H](C)C(=O)O)[C@@H](C)O)C(C)C [CS2, TAT-C6-GGVVTA]
- ClpP–αSyn interaction by co-IP (ClpP–αSyn interaction): markedly reduced the ClpP–αSyn interaction
- ClpP–αSyn interaction in midbrain ([1]; 3 mg/kg/day s.c., anti-ClpP IP, n = 3 mice/group): abolish the interaction between ClpP and αSyn
- other mitochondrial matrix proteins in midbrain ([1]; 3 mg/kg/day s.c., western blot of LonP, ClpX, n = 3–5 mice/group): without affecting other mitochondrial matrix proteins
- ClpP expression in midbrain [1, 2]: restored ClpP expression in the midbrain
- detergent-insoluble αSyn in midbrain [1, 2]: reduced levels of soluble pS129-αSyn and detergent-insoluble αSyn
- soluble pS129-αSyn in midbrain [1, 2]: reduced levels of soluble pS129-αSyn
- ClpP–αSyn interaction, 3 vs 10 mg/kg/day ([1]; s.c., comparison with 10 mg/kg/day): without disparity from 10 mg/kg/day

Source: publication PMC12751141, “Disrupting α-Synuclein–ClpP interaction restores mitochondrial function and attenuates neuropathology in Parkinson’s disease models” (Molecular Neurodegeneration, 2025)
